The source made the active and inactive calls. No cut-off for these calls is given here.
How the values were obtained:
[1] = Downregulation of LMNB2 gene expression in human MIA PaCa-2 cells assessed as fold change in LMNB2 expression at 1 uM incubated for 24 hrs by Bru-seq analysis relative to control; format: functional
HepG2 = test: Antiproliferative activity against human HepG2 cells assessed as inhibition of cell growth incubated for 72 hrs by MTT assay; format: functional, cell-based; settings: HepG2, 72 h
BXPC-3 [2] = test: Cytotoxicity against human BXPC-3 cells assessed as inhibition of cell growth incubated for 72 hrs by MTT assay; format: functional, cell-based; settings: BXPC-3, 72 h
SNU-398 = test: Antiproliferative activity against human SNU-398 cells assessed as inhibition of cell growth incubated for 72 hrs by MTT assay; format: functional, cell-based; settings: SNU-398, 72 h
MIA PaCa-2 [3] = test: Inhibition of colony formation in human MIA PaCa-2 cells at 0.1 to 1 uM incubated for 10 to 14 days by crystal violet staining based assay; format: functional, cell-based; settings: dose 0.1-1 µM, time 10-14 day
BXPC-3 [4] = test: Inhibition of colony formation in human BXPC-3 cells at 1 uM incubated for 10 to 14 days by crystal violet staining based assay; format: functional, cell-based; settings: time 10-14 day
MIA PaCa-2 [5] = test: Induction of cell cycle arrest in human MIA PaCa-2 cells assessed as accumulation of cells in G2/M phase at 0.1 uM incubated for 24 hrs by RNase/propidium iodide staining based flow cytometry analysis (reference value: 8.11%); format: functional
MIA PaCa-2 [6] = test: Induction of cell cycle arrest in human MIA PaCa-2 cells assessed as accumulation of cells in G2/M phase at 0.5 uM incubated for 24 hrs by RNase/propidium iodide staining based flow cytometry analysis (reference value: 8.11%); format: functional
MIA PaCa-2 [7] = test: Induction of apoptosis in human MIA PaCa-2 cells assessed as viable cells at 0.1 uM incubated for 24 hrs by Annexin V-FITC/PI staining based flow cytometry analysis (reference value: 90.2%); format: functional; settings: read-out: Activity
MIA PaCa-2 [8] = test: Induction of apoptosis in human MIA PaCa-2 cells assessed as late apoptotic cells at 0.5 uM incubated for 48 hrs by Annexin V-FITC/PI staining based flow cytometry analysis (reference value: 0.8%); format: functional
MIA PaCa-2 [9] = test: Induction of apoptosis in human MIA PaCa-2 cells assessed as necrotic cells at 0.5 uM incubated for 48 hrs by Annexin V-FITC/PI staining based flow cytometry analysis (reference value: 1.07%); format: functional
[10] = Toxicity in NOD/SCID mouse xenografted with human MIA PaCa- 2 cells assessed as morphological changes in kidney at 10 to 20 mg/kg, ip administered five times a week for 44 days by H and E staining based inverted microscopic analysis; format: organism-based; settings: in vivo, 1056 h, dose 10-20 mg/kg, time 44 day
[11] = Toxicity in NOD/SCID mouse xenografted with human MIA PaCa- 2 cells assessed as morphological changes in heart at 10 to 20 mg/kg, ip administered five times a week for 44 days by H and E staining based inverted microscopic analysis; format: organism-based; settings: in vivo, 1056 h, dose 10-20 mg/kg, time 44 day
[12] = Toxicity in NOD/SCID mouse xenografted with human MIA PaCa- 2 cells assessed as morphological changes in pancreas at 10 to 20 mg/kg, ip administered five times a week for 44 days by H and E staining based inverted microscopic analysis; format: organism-based; settings: in vivo, 1056 h, dose 10-20 mg/kg, time 44 day
[13] = Upregulation of ATF3 gene expression in human MIA PaCa-2 cells assessed as fold change in ATF3 expression at 1 uM incubated for 24 hrs by Bru-seq analysis relative to control; format: functional
[14] = Upregulation of HMOX1 gene expression in human MIA PaCa-2 cells assessed as fold change in HMOX1 expression at 1 uM incubated for 24 hrs by Bru-seq analysis relative to control; format: functional
[15] = Upregulation of DDIT3 gene expression in human MIA PaCa-2 cells assessed as fold change in DDIT3 expression at 1 uM incubated for 24 hrs by Bru-seq analysis relative to control; format: functional
[16] = Upregulation of […] gene expression in human MIA PaCa-2 cells assessed as fold change in […] expression at 1 uM incubated for 24 hrs by Bru-seq analysis relative to control; format: functional
[17] = Upregulation of CXCL8 gene expression in human MIA PaCa-2 cells assessed as fold change in CXCL8 expression at 1 uM incubated for 24 hrs by Bru-seq analysis relative to control; format: functional
[18] = Downregulation of PLEKHG3 gene expression in human MIA PaCa-2 cells assessed as fold change in PLEKHG3 expression at 1 uM incubated for 24 hrs by Bru-seq analysis relative to control; format: functional
[19] = Downregulation of TNFAIP8LI gene expression in human MIA PaCa-2 cells assessed as fold change in TNFAIP8LI expression at 1 uM incubated for 24 hrs by Bru-seq analysis relative to control; format: functional
[20] = Downregulation of NEURLIB gene expression in human MIA PaCa-2 cells assessed as fold change in NEURLIB expression at 1 uM incubated for 24 hrs by Bru-seq analysis relative to control; format: functional
[21] = Downregulation of INCENP gene expression in human MIA PaCa-2 cells assessed as fold change in INCENP expression at 1 uM incubated for 24 hrs by Bru-seq analysis relative to control; format: functional
[22] = Downregulation of CXXC5 gene expression in human MIA PaCa-2 cells assessed as fold change in CXXC5 expression at 1 uM incubated for 24 hrs by Bru-seq analysis relative to control; format: functional
[23] = Downregulation of GTSEI gene expression in human MIA PaCa-2 cells assessed as fold change in GTSEI expression at 1 uM incubated for 24 hrs by Bru-seq analysis relative to control; format: functional
[24] = Downregulation of H2AFX gene expression in human MIA PaCa-2 cells assessed as fold change in H2AFX expression at 1 uM incubated for 24 hrs by Bru-seq analysis relative to control; format: functional
[25] = Downregulation of SEMA6B gene expression in human MIA PaCa-2 cells assessed as fold change in SEMA6B expression at 1 uM incubated for 24 hrs by Bru-seq analysis relative to control; format: functional
MIA PaCa-2 [26] = test: Upregulation of hypoxia in human MIA PaCa-2 cells by gene set enrichment analysis; format: functional, cell-based
MIA PaCa-2 [27] = test: Upregulation of apoptotic gene expression in human MIA PaCa-2 cells by gene set enrichment analysis; format: functional, cell-based
MIA PaCa-2 [28] = test: Downregulation of G2M checkpoint gene expression in human MIA PaCa-2 cells by gene set enrichment analysis; format: functional, cell-based
MIA PaCa-2 [29] = test: Downregulation of mitotic spindle gene expression in human MIA PaCa-2 cells by gene set enrichment analysis; format: functional, cell-based
MIA PaCa-2 [30] = test: Induction of autophagy in human MIA PaCa-2 cells assessed as accumulation of WIP11 marker gene expression at upto 2 uM incubated for 72 hrs by Western blot analysis; format: functional, cell-based
MIA PaCa-2 [31] = test: Induction of autophagy in human MIA PaCa-2 cells assessed as accumulation of LC3B marker gene expression at upto 2 uM incubated for 72 hrs by Western blot analysis; format: functional, cell-based

In the case of `O=C(Nc1cccc2cccnc12)c1cnccn1`, the “fold change (FC)” value [1] is reported as 0.46, the IC50 (HepG2) is reported as 500 nM and the IC50 (BXPC-3 [2]) is reported as 3.3 µM. The IC50 (SNU-398) was 1900 nM, the inhibition (MIA PaCa-2 [3]) was “Active” and the inhibition (BXPC-3 [4]) was “Active”. For the same molecule, the Activity (MIA PaCa-2 [5]) was 14.9%, the Activity (MIA PaCa-2 [6]) was 10.5% and the viability at 0.1 µM (MIA PaCa-2 [7]) was 84.9%. The Activity (MIA PaCa-2 [8]) was 1.8%, the Activity (MIA PaCa-2 [9]) was 1.2% and the Activity [10] was “Non-Toxic”. The Activity [11] was “Non-Toxic”, the Activity [12] was “Non-Toxic” and the “fold change (FC)” value [13] was 22. For the same molecule, the “fold change (FC)” value [14] was 13, the “fold change (FC)” value [15] was 11 and the “fold change (FC)” value [16] was 12.8. For the same molecule, the “fold change (FC)” value [17] was 6, the “fold change (FC)” value [18] was 0.39 and the “fold change (FC)” value [19] was 0.32. For the same molecule, the “fold change (FC)” value [20] was 0.44, the “fold change (FC)” value [21] was 0.46 and the “fold change (FC)” value [22] was 0.4. The “fold change (FC)” value [23] was 0.46, the “fold change (FC)” value [24] was 0.35 and the “fold change (FC)” value [25] was 0.43. The Activity (MIA PaCa-2 [26]) was “Active”, the Activity (MIA PaCa-2 [27]) was “Active” and the Activity (MIA PaCa-2 [28]) was “Active”. For the same molecule, the Activity (MIA PaCa-2 [29]) was “Active”, the Activity (MIA PaCa-2 [30]) was “Active” and the Activity (MIA PaCa-2 [31]) was “Active”.

Source: ChEMBL document CHEMBL5154879, “Induction of Genes Implicated in Stress Response and Autophagy by a Novel Quinolin-8-yl-nicotinamide QN523 in Pancreatic Cancer” (J Med Chem, 2022)
